These compounds were tested against T1, LRRK2, LRRK2 (G2019S), DYRK1, CLK1 and TTK kinases (Homo sapiens, UniProt Q13627) (assay: Enzyme IC50 by Kinase HotSpot service (Reaction Biology Corporation), values marked with *). Settings: DYRK1, ATP 10 uM.
T1 construct: other: DYRK1; Kinase HotSpot service (Reaction Biology), ATP 10 uM
Assay type: biochemical
Procedure, shortened: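 Radiometric-service kinase assays (Reaction Biology HotSpot protocol) run at 10 uM ATP under uniform conditions. Compounds tested as 3-fold dilution series from a top concentration of […] to give IC50.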

IC50 [nM]	SMILES
< 100	COc1cc(S(=O)(=O)N2CCC(N3CCOCC3)CC2)ccc1Nc1cc(C2CC2)c2c(C#N)c[nH]c2n1 [Example 228, 4-cyclopropyl-6-((2-methoxy-4-((4-morpholinopiperidin-1-yl)sulfonyl)phenyl)amino)-1H-pyrrolo[2,3-b]pyridine-3-carbonitrile]
101 to 300	N#Cc1c[nH]c2nc(Nc3ccc(C(=O)N4CCOCC4)c4c3OCCO4)cc(C3CC3)c12 [Example 225, 4-cyclopropyl-6-((8-(morpholine-4-carbonyl)-2,3-dihydrobenzo[b] [1,4]dioxin-5-yl)amino)-1H-pyrrolo[2,3-b]pyridine-3-carbonitrile]
< 100	O=C(c1ccc(Nc2cc(C3CC3)c3c(C(F)(F)F)c[nH]c3n2)c2c1CCO2)N1CCOCC1 [Example 91, (7-((4-cyclopropyl-3-(trifluoromethyl)-1H-pyrrolo[2,3-b]pyridin-6-yl)amino)-2,3-dihydrobenzofuran-4-yl)(morpholino) methanone]
< 100	N#Cc1c[nH]c2nc(Nc3ccc(C(=O)N4CCC(N5CCOCC5)CC4)c4c3OCCO4)cc(C3CC3)c12 [Example 226, 4-cyclopropyl-6-((8-(4-morpholinopiperidine-1-carbonyl)-2,3-dihydrobenzo[b] [1,4]dioxin-5-yl)amino)-1H-pyrrolo[2,3-b]pyridine-3-carbonitrile]
< 100	O=C(c1ccc(Nc2cc(C3CC3)c3c(C(F)(F)F)c[nH]c3n2)c2c1CCO2)N1CCC(N2CCOCC2)CC1 [Example 93, (7-((4-cyclopropyl-3-(trifluoromethyl)-1H-pyrrolo[2,3-b]pyridin-6-yl)amino)-2,3-dihydrobenzofuran-4-yl)(4-morpholinopiperidin-1-yl)mthanone]
101 to 300	COc1cc(S(=O)(=O)N2CCOCC2)ccc1Nc1cc(C2CC2)c2c(C(F)(F)F)c[nH]c2n1 [Example 222, 4-cyclopropyl-N-(2-methoxy-4-(morpholinosulfonyl)phenyl)-3-(trifluoromethyl)-1H-pyrrolo[2,3-b]pyridin-6-amine]
< 100	COc1cc(P2(=O)CCN(C(C)=O)CC2)ccc1Nc1cc(C2CC2)c2c(C(F)(F)F)c[nH]c2n1 [Example 48, 1-(4-(4-((4-cyclopropyl-3-(trifluoromethyl)-1H-pyrrolo[2,3-b]pyridin-6-yl)amino)-3-methoxyphenyl)-4-oxido-1,4-azaphosphinan-1-yl)ethan-1-one]
101 to 300	O=C(c1ccc(Nc2cc(C3CC3)c3c(C(F)(F)F)c[nH]c3n2)c2c1OCO2)N1CCC(N2CCOCC2)CC1 [Example 49, (7-((4-cyclopropyl-3-(trifluoromethyl)-1H-pyrrolo[2,3-b]pyridin-6-yl)amino)benzo[d][1,3]dioxol-4-yl)(4-morpholinopiperidin-1-yl)methanone]

These compounds were tested on IL-6 (assay: IL-6 secretion inhibition in LPS-treated THP-1 cells (ELISA)). Settings: Homo sapiens, compound 0.5 μM, LPS 500 ng/ml, 24 hours, read-out: THP1/IL6 (% inhib).
Assay type: cell-based
Procedure: In order to evaluate the cytokine secretion inhibitory efficacy of mononuclear cells, THP-1 cells (ATCC, #TIB-202) as a human-derived monocyte cell line were cultured in RPMI-1640 (Hyclone, SH30027.01) media in which 10% fetal bovine serum (Hyclone, SH30084.03), 1% penicillin streptomycin (Welgene, LS202-02) and 50 μM 2-Mercaptoethanol (Gibco, #21985023) were contained. In the test, 1.5-2×10^5 cells/250 μl per each well were dispensed in a 48-well plate (SPL, #30048) and incubated in an incubator at 37° C. and 5% CO2 for 16 hours, and then the compounds were diluted in DMSO so that the final concentration was 0.5 μM. It was treated with Lipopolysaccharides (LPS) (sigma, #L6529) […]. After treatment with the compound, the LPS was treated so that the final concentration was 500 ng/ml, and then the cell culture fluid was collected after culturing for 24 hours, and the degrees of the cytokines IL-6 (R&D system, #D6050) and TNF-α (R&D system, #DTA00D) contained in the culture fluid were collected using each ELISA kit. After performing the experiment according to the manufacturer's instructions, the absorbance at 450 nm was measured and analyzed using a microplate reader.

SMILES	inhibition at 0.5 µM [%]
COc1cc(S(=O)(=O)N2CCC(N3CCOCC3)CC2)ccc1Nc1cc(NCCS(C)(=O)=O)c2c(C(F)(F)F)c[nH]c2n1 [Example 194, N^6-(2-methoxy-4-((4-morpholinopiperidin-1-yl)sulfonyl)phenyl)-N^4-(2-(methylsulfonyl)ethyl)-3-(trifluoromethyl)-1H-pyrrolo[2,3-b]pyridine-4,6-diamine]	6.3
CCNc1cc(Nc2ccc(C(=O)N3C[C@@H]4C[C@H]3CO4)c3c2OCCO3)nc2[nH]cc(C(F)(F)F)c12 [Example 44, ((1S,4S)-2-oxa-5-azabicyclo[2.2.1]heptan-5-yl)(8-((4-(ethylamino)-3-(trifluoromethyl)-1H-pyrrolo[2,3-b]pyridin-6-yl)amino)-2,3-dihydrobenzo[b] [1,4]dioxin-5-yl)methanone]	47.9
CCNc1cc(Nc2ccc(C(=O)N3CCN(C4COC4)CC3)c3c2OCC3)nc2[nH]cc(C(F)(F)F)c12 [Example 248, (7-((4-(ethylamino)-3-(trifluoromethyl)-1H-pyrrolo[2,3-b]pyridin-6-yl)amino)-2,3-dihydrobenzofuran-4-yl)(4-(oxetan-3-yl)piperazin-1-yl)methanone]	48.4
O=C(c1ccc(Nc2cc(C3CC3)c3c(C(F)(F)F)c[nH]c3n2)c2c1CCO2)N1CCOCC1 [Example 91, (7-((4-cyclopropyl-3-(trifluoromethyl)-1H-pyrrolo[2,3-b]pyridin-6-yl)amino)-2,3-dihydrobenzofuran-4-yl)(morpholino) methanone]	52.5
CCNc1cc(Nc2ccc(P3(=O)CCN(C(C)=O)CC3)cc2OC)nc2[nH]cc(C(F)(F)F)c12 [Example 42, 1-(4-(4-((4-(ethylamino)-3-(trifluoromethyl)-1H-pyrrolo[2,3-b]pyridin-6-yl)amino)-3-methoxyphenyl)-4-oxido-1,4-azaphosphinan-1-yl)ethan-1-one]	48.3
CCNc1cc(Nc2ccc(C(=O)N3CCC(N4CCOCC4)CC3)c3c2OCC3)nc2[nH]cc(C(F)(F)F)c12 [Example 90, (7-((4-(ethylamino)-3-(trifluoromethyl)-1H-pyrrolo[2,3-b]pyridin-6-yl)amino)-2,3-dihydrobenzofuran-4-yl)(4-morpholinopiperidin-1-yl)methanone]	12.2
CNc1cc(Nc2ccc(S(=O)(=O)N3CCC(N4C[C@H]5C[C@@H]4CO5)CC3)cc2OC)nc2[nH]cc(C(F)(F)F)c12 [Example 243, N^6-(4-((4-((1R,4R)-2-oxa-5-azabicyclo[2.2.1]heptan-5-yl)piperidin-1-yl)sulfonyl)-2-methoxyphenyl)-N^4-methyl-3-(trifluoromethyl)-1H-pyrrolo[2,3-b]pyridine-4,6-diamine]	32.3
CNc1cc(Nc2ccc(C(=O)N3CCC(N4CCOCC4)CC3)c3c2OCC3)nc2[nH]cc(C(F)(F)F)c12 [Example 234, (7-((4-(methylamino)-3-(trifluoromethyl)-1H-pyrrolo[2,3-b]pyridin-6-yl)amino)-2,3-dihydrobenzofuran-4-yl)(4-morpholinopiperidin-1-yl)methanone]	50.9
CCNc1cc(Nc2ccc(C(=O)N3CCN(C4COC4)CC3)c3c2OCCO3)nc2[nH]cc(C(F)(F)F)c12 [Example 173, (8-((4-(ethylamino)-3-(trifluoromethyl)-1H-pyrrolo[2,3-b]pyridin-6-yl)amino)-2,3-dihydrobenzo[b] [1,4]dioxin-5-yl)(4-(oxetan-3-yl)piperazin-1-yl)methanone]	9.1
CCNc1cc(Nc2ccc(C(=O)N3CCC(N4C[C@H]5C[C@@H]4CO5)CC3)c3c2OCC3)nc2[nH]cc(C(F)(F)F)c12 [Example 244, (4-((1R,4R)-2-oxa-5-azabicyclo[2.2.1]heptan-5-yl)piperidin-1-yl)(7-((4-(ethylamino)-3-(trifluoromethyl)-1H-pyrrolo[2,3-b]pyridin-6-yl)amino)-2,3-dihydrobenzofuran-4-yl)methanone]	40.1
CCNc1cc(Nc2ccc(P3(=O)CCN(C4CCOCC4)CC3)cc2OC)nc2[nH]cc(C(F)(F)F)c12 [Example 94, 4-(4-((4-(ethylamino)-3-(trifluoromethyl)-1H-pyrrolo[2,3-b]pyridin-6-yl)amino)-3-methoxyphenyl)-1-(tetrahydro-2H-pyran-4-yl)-1,4-azaphosphinane 4-oxide]	21
CNc1cc(Nc2ccc(S(=O)(=O)N3CCC(N4CCOCC4)CC3)c3c2OCCO3)nc2[nH]cc(C(F)(F)F)c12 [Example 233, N^4-methyl-N^6-(8-((4-morpholinopiperidin-1-yl)sulfonyl)-2,3-dihydrobenzo [b] [1,4]dioxin-5-yl)-3-(trifluoromethyl)-1H-pyrrolo[2,3-b]pyridine-4,6-diamine]	4.3
COCCNc1cc(Nc2ccc(S(=O)(=O)N3CCC(N4CCOCC4)CC3)c3c2OCCO3)nc2[nH]cc(C(F)(F)F)c12 [Example 97, N^4-(2-methoxyethyl)-N^6-(8-((4-morpholonopiperidin-1-yl)sulfonyl)-2,3-dihydrobenzo[b] [1,4]dioxin-5-yl)-3-(trifluoromethyl)-1H-pyrrolo[2,3-b]pyridine-4,6-diamine]	17
